# Experiments:
# Format in all cases: in vivo
# [1] = tested on: Spodoptera Eridania, 3rd Instar Larvae, Southern Armyworm (SAW); test: Southern armyworm (SAW) leaf-dip test, observations at 5 days; conditions: Southern Army Worm, rating scale; for pest or weed control at 1000 ppm: Spodoptera eridania, foliar, 120 h, read-out: SAW 2^ND-FOLIAR 1000 (ppm)
# Method: (§1) Test solutions are prepared by dissolving the test compound in a 35% acetone in water mixture to give a concentration of 10,000 ppm. Subsequent dilutions are made with water as needed.
# Spodoptera Eridania, 3rd Instar Larvae, Southern Armyworm (SAW)
# A Sieva lima bean leaf expanded to 7-8 cm in length is dipped in the test solution with agitation for 3 seconds and allowed to dry in a hood. The leaf is then placed in a 100×10 mm petri dish containing a damp filter paper on the bottom and ten 3rd instar caterpillars. At 5 days, observations are made of mortality, reduced feeding, or any interference with normal molting.
# [2] = tested on: Tetranychus Urticae (OP-resistant strain), 2-spotted Spider Mite (TSM); test: Two-spotted spider mite (TSM) plant-dip test, mortality after 2 days; conditions: rating scale; for pest or weed control at 300 ppm: Tetranychus urticae, 48 h, read-out: TSM AD-FOLIAR 300 (ppm)
# Method: as §1
# Tetranychus Urticae (OP-resistant strain), 2-spotted Spider Mite (TSM)
# Sieva lima bean plants with primary leaves expanded to 7-8 cm are selected and cut back to one plant per pot. A small piece is cut from an infested leaf taken from the main colony and placed on each leaf of the test plants. This is done about 2 hours before treatment to allow the mites to move over to the test plant to lay eggs. The size of the cut, infested leaf is varied to obtain about 100 mites per leaf. At the time of test treatment, the piece of leaf used to transfer the mites is removed and discarded. The newly-infested plants are dipped in the test solution for 3 seconds with agitation and set in the hood to dry. After 2 days, one leaf is removed and mortality counts are made.
# [3] = tested on: Aphis Fabae, Mixed Instar, Bean Aphid (BA); test: Bean aphid (BA) foliar spray test, mortality after 2 days; conditions: rating scale; for pest or weed control at 300 ppm: Aphis fabae, 48 h, read-out: BA AD-FOLIAR 300 (ppm)
# Method: as §1
# Aphis Fabae, Mixed Instar, Bean Aphid (BA)
# Pots containing single nasturtium plants (Tropaeolum sp.) about 5 cm tall are infested with about 100-200 aphids one day before the test. Each pot is sprayed with the test solution for 2 revolutions of a 4 rpm turntable in a hood. The spray is directed to give complete coverage of the plants and aphids. The sprayed pots are set on their sides on white trays and held for 2 days, following which mortality estimates are made. Essentially the same method is used with respect to cotton aphid (CA).
smiles,measurement,setting,value
FC(F)(F)c1cc(Oc2nccc(-c3ccc(Cl)cc3)n2)ccc1Cl [Compound 1],SAW 2^ND-FOLIAR 1000 (ppm),[1],A (A 0-45% kill)
FC(F)(F)c1cccc(Oc2nccc(-c3ccc(Cl)cc3)n2)c1 [Compound 2],TSM AD-FOLIAR 300 (ppm),[2],C (C 76-100% kill)
O=[N+]([O-])c1ccc(Oc2nccc(-c3ccc(Cl)cc3)n2)cc1C(F)(F)F [Compound 3],SAW 2^ND-FOLIAR 1000 (ppm),[1],B (B 45-75% kill)
Fc1ccc(Oc2nccc(-c3ccc(Cl)cc3)n2)cc1C(F)(F)F [Compound 4],TSM AD-FOLIAR 300 (ppm),[2],A (A 0-45% kill)
Fc1ccc(Oc2nccc(-c3ccccc3)n2)cc1C(F)(F)F [Compound 6],SAW 2^ND-FOLIAR 1000 (ppm),[1],A (A 0-45% kill)
O=[N+]([O-])c1ccc(Oc2nccc(-c3ccccc3)n2)cc1C(F)(F)F [Compound 8],SAW 2^ND-FOLIAR 1000 (ppm),[1],A (A 0-45% kill)
O=[N+]([O-])c1ccc(-c2ccnc(Oc3cccc(C(F)(F)F)c3)n2)cc1 [Compound 9],BA AD-FOLIAR 300 (ppm),[3],B (B 45-75% kill)
CCc1ccc(-c2ccnc(Oc3ccc(F)c(Cl)c3)n2)cc1 [Compound 13],BA AD-FOLIAR 300 (ppm),[3],C (C 76-100% kill)
same,SAW 2^ND-FOLIAR 1000 (ppm),[1],C (C 76-100% kill)
CCc1ccc(-c2ccnc(Oc3cccc(C(F)(F)F)c3)n2)cc1 [Compound 15],BA AD-FOLIAR 300 (ppm),[3],C (C 76-100% kill)
same,TSM AD-FOLIAR 300 (ppm),[2],C (C 76-100% kill)
CCc1ccc(-c2ccnc(Oc3ccc(Cl)c(C(F)(F)F)c3)n2)cc1 [Compound 17],BA AD-FOLIAR 300 (ppm),[3],C (C 76-100% kill)
FC(F)(F)c1cccc(-c2ccnc(Oc3ccc(Cl)c(Cl)c3)n2)c1 [Compound 20],BA AD-FOLIAR 300 (ppm),[3],B (B 45-75% kill)
same,SAW 2^ND-FOLIAR 1000 (ppm),[1],A (A 0-45% kill)
CC(C)(C)c1ccc(-c2ccnc(Oc3ccc(Cl)c(C(F)(F)F)c3)n2)cc1 [Compound 25],BA AD-FOLIAR 300 (ppm),[3],A (A 0-45% kill)
CC(C)(C)c1ccc(-c2ccnc(Oc3ccc([N+](=O)[O-])c(C(F)(F)F)c3)n2)cc1 [Compound 26],BA AD-FOLIAR 300 (ppm),[3],B (B 45-75% kill)
FC(F)(F)c1ccc(-c2ccnc(Oc3ccc(Cl)c(Cl)c3)n2)cc1 [Compound 28],BA AD-FOLIAR 300 (ppm),[3],A (A 0-45% kill)
Fc1ccc(Oc2nccc(-c3ccc(C(F)(F)F)cc3)n2)cc1Cl [Compound 31],BA AD-FOLIAR 300 (ppm),[3],B (B 45-75% kill)
O=[N+]([O-])c1ccc(Oc2nccc(-c3ccc(C(F)(F)F)cc3)n2)cc1C(F)(F)F [Compound 33],BA AD-FOLIAR 300 (ppm),[3],B (B 45-75% kill)
O=[N+]([O-])c1ccc(Oc2nccc(-c3cccc(OC(F)(F)F)c3)n2)cc1C(F)(F)F [Compound 40],SAW 2^ND-FOLIAR 1000 (ppm),[1],A (A 0-45% kill)
FC(F)(F)Oc1cccc(-c2ccnc(Oc3cc(Cl)cc(Cl)c3)n2)c1 [Compound 41],TSM AD-FOLIAR 300 (ppm),[2],A (A 0-45% kill)
FC(F)(F)Oc1ccc(-c2ccnc(Oc3cc(Cl)cc(Cl)c3)n2)cc1 [Compound 44],SAW 2^ND-FOLIAR 1000 (ppm),[1],A (A 0-45% kill)
FC(F)(F)Oc1ccc(-c2ccnc(Oc3cc(C(F)(F)F)cc(C(F)(F)F)c3)n2)cc1 [Compound 45],BA AD-FOLIAR 300 (ppm),[3],C (C 76-100% kill)
FC(F)(F)Oc1ccc(-c2ccnc(Oc3ccc(Cl)c(C(F)(F)F)c3)n2)cc1 [Compound 46],BA AD-FOLIAR 300 (ppm),[3],B (B 45-75% kill)
same,SAW 2^ND-FOLIAR 1000 (ppm),[1],B (B 45-75% kill)
O=[N+]([O-])c1ccc(Oc2nccc(-c3ccc(OC(F)(F)F)cc3)n2)cc1C(F)(F)F [Compound 49],BA AD-FOLIAR 300 (ppm),[3],B (B 45-75% kill)
same,TSM AD-FOLIAR 300 (ppm),[2],B (B 45-75% kill)
Fc1cc(-c2ccnc(Oc3cccc(C(F)(F)F)c3)n2)cc(C(F)(F)F)c1 [Compound 52],SAW 2^ND-FOLIAR 1000 (ppm),[1],A (A 0-45% kill)
Fc1cc(-c2ccnc(Oc3ccc(F)c(C(F)(F)F)c3)n2)cc(C(F)(F)F)c1 [Compound 53],BA AD-FOLIAR 300 (ppm),[3],C (C 76-100% kill)
same,SAW 2^ND-FOLIAR 1000 (ppm),[1],A (A 0-45% kill)
Fc1cc(-c2ccnc(Oc3ccc(Cl)c(Cl)c3)n2)cc(C(F)(F)F)c1 [Compound 58],BA AD-FOLIAR 300 (ppm),[3],C (C 76-100% kill)
Fc1cc(F)cc(-c2ccnc(Oc3cccc(C(F)(F)F)c3)n2)c1 [Compound 61],BA AD-FOLIAR 300 (ppm),[3],C (C 76-100% kill)
Fc1cc(F)cc(-c2ccnc(Oc3ccc(F)c(C(F)(F)F)c3)n2)c1 [Compound 62],BA AD-FOLIAR 300 (ppm),[3],B (B 45-75% kill)
same,SAW 2^ND-FOLIAR 1000 (ppm),[1],C (C 76-100% kill)
Fc1ccc(Oc2nccc(-c3ccc(F)c(C(F)(F)F)c3)n2)cc1C(F)(F)F [Compound 70],TSM AD-FOLIAR 300 (ppm),[2],B (B 45-75% kill)
CCc1cnc(Oc2cccc(C(F)(F)F)c2)nc1-c1ccc(Cl)c(F)c1 [Compound 82],pest or weed control at 1000 ppm,[1],76 to 100%
CSc1cc(-c2cccc(C(F)(F)F)c2)nc(Oc2cccc(C(F)(F)F)c2)n1 [Compound 108],pest or weed control at 300 ppm,[3],45 to 75%
FC(F)(F)c1cccc(Oc2nccc(-c3cccc(C(F)(F)F)c3)n2)c1 [Compound 109],pest or weed control at 300 ppm,[3],45 to 75%
same,pest or weed control at 1000 ppm,[1],0 to 45%
FC(F)(F)c1cccc(Oc2nc(Cl)cc(-c3cccc(C(F)(F)F)c3)n2)c1 [Compound 110],pest or weed control at 1000 ppm,[1],76 to 100%
CN(C)c1cc(-c2cccc(C(F)(F)F)c2)nc(Oc2cccc(C(F)(F)F)c2)n1 [Compound 111],pest or weed control at 300 ppm,[3],76 to 100%
Fc1ccc(Oc2nccc(-c3cccc(C(F)(F)F)c3)n2)cc1C(F)(F)F [Compound 112],pest or weed control at 1000 ppm,[1],0 to 45%
Fc1ccc(Oc2nccc(-c3ccc(Cl)cc3)n2)cc1C(F)(F)F [Compound 115],pest or weed control at 1000 ppm,[1],0 to 45%
same,pest or weed control at 300 ppm,[2],45 to 75%
FC(F)(F)c1cccc(Oc2nccc(-c3ccc(Cl)cc3)n2)c1 [Compound 116],pest or weed control at 1000 ppm,[1],0 to 45%
same,pest or weed control at 300 ppm,[2],45 to 75%
CSc1cc(-c2ccc(Cl)cc2)nc(Oc2cccc(Cl)c2)n1 [Compound 119],pest or weed control at 1000 ppm,[1],45 to 75%
FC(F)(F)c1cc(Oc2nccc(-c3ccc(Cl)cc3)n2)ccc1Cl [Compound 122],pest or weed control at 1000 ppm,[1],45 to 75%
FC(F)(F)c1cccc(Oc2nccc(-c3ccccc3)n2)c1 [Compound 128],pest or weed control at 300 ppm,[3],45 to 75%
same,pest or weed control at 300 ppm,[2],76 to 100%
Fc1ccc(Oc2nccc(-c3ccccc3)n2)cc1C(F)(F)F [Compound 130],pest or weed control at 300 ppm,[3],0 to 45%
Fc1cccc(Oc2nccc(-c3ccc(Cl)cc3)n2)c1 [Compound 137],pest or weed control at 300 ppm,[3],76 to 100%
O=[N+]([O-])c1cccc(Oc2nccc(-c3ccc(Cl)cc3)n2)c1 [Compound 140],pest or weed control at 300 ppm,[3],0 to 45%
same,pest or weed control at 300 ppm,[2],45 to 75%
N#Cc1cccc(Oc2nccc(-c3ccc(Cl)cc3)n2)c1 [Compound 141],pest or weed control at 300 ppm,[3],45 to 75%
Fc1cccc(Oc2nccc(-c3ccc(Cl)cc3)n2)c1 [Compound 142],pest or weed control at 300 ppm,[2],76 to 100%
COc1cccc(Oc2nccc(-c3ccc(Cl)cc3)n2)c1 [Compound 143],pest or weed control at 300 ppm,[3],76 to 100%
Cc1ccc(-c2ccnc(Oc3cccc(C(F)(F)F)c3)n2)cc1 [Compound 147],pest or weed control at 300 ppm,[3],76 to 100%
same,pest or weed control at 300 ppm,[2],76 to 100%
Fc1ccc(Oc2nccc(-c3ccc(Cl)cc3)n2)cc1Cl [Compound 150],pest or weed control at 300 ppm,[3],45 to 75%
same,pest or weed control at 300 ppm,[2],76 to 100%
Clc1ccc(-c2ccnc(Oc3ccc(Cl)c(Cl)c3)n2)cc1 [Compound 151],pest or weed control at 300 ppm,[3],45 to 75%
COc1ccc(-c2ccnc(Oc3ccc(F)c(C(F)(F)F)c3)n2)cc1 [Compound 153],pest or weed control at 300 ppm,[3],45 to 75%
FC(F)(F)c1cccc(Oc2nccc(-c3ccc(Cl)c(Cl)c3)n2)c1 [Compound 154],pest or weed control at 300 ppm,[3],45 to 75%
Fc1ccc(Oc2nccc(-c3ccc(Cl)c(Cl)c3)n2)cc1C(F)(F)F [Compound 155],pest or weed control at 300 ppm,[3],76 to 100%
same,pest or weed control at 1000 ppm,[1],0 to 45%
FC(F)(F)c1cccc(Oc2nccc(-c3ccc(Br)cc3)n2)c1 [Compound 161],pest or weed control at 300 ppm,[3],76 to 100%
same,pest or weed control at 1000 ppm,[1],0 to 45%
Fc1ccc(Oc2nccc(-c3ccc(Br)cc3)n2)cc1C(F)(F)F [Compound 162],pest or weed control at 1000 ppm,[1],0 to 45%

# Reference: patent US6440984B1, “Use of aryl-substituted pyrimidines as insecticidal and acaricidal agents” (BASF Aktiengesellschaft, priority 1998, dated 2002)
